The subject of experiment [1] is human podocytes exposed to DM w DN sera. Briefly: Human podocytes exposed to sera of diabetic patients with DN (blebbing, cholesterol, apoptosis). The format is cell-based. As to conditions: normal human podocytes exposed to sera of patients with diabetic nephropathy; cholesterol depletion with Methyl-beta-cyclodextrin. How it is done:
DN is a chronic progressive disease that affects a sizable subset of patients with diabetes. Despite the identification of multiple risk factors that contribute to the development of DN, it has remained difficult to identify the subset of patients with diabetes at risk for DN. This led to testing to determine if an in vitro prediction assay could be developed. For this purpose, the following experiments were conducted. Non-identifiable samples of patient sera were obtained. Samples consisted of serum collected from 10 patients with diabetes and macroalbuminuria (DM w DN) and 10 diabetic normoalbuminuric patients (DM w/o DN) well matched for HgA1C (7.9%), total cholesterol levels and the duration of diabetes. Normal human sera (NHS) from 10 age and sex matched healthy subjects were also utilized as controls. Differentiated human podocytes were serum starved for 24 hours and then exposed to 4% serum of NHS, DM w/o DN, DM w DN for 24 hours. […] Total cholesterol was also determined with an enzymatic reaction. Total cholesterol was increased in podocytes treated with DM w DN when compared to DM w/o DN and NHS (FIG. 3D, *p<0.05), a phenomenon that was prevented by CD (FIG. 3D, #p<0.05). Cell blebbing was predictive of DN, as sera collected from patients before progressing to DN at the time they were normoalbuminuric already caused cell blebbing (FIG. 3E).

In a further experiment the test system is LPS induced proteinuria. Briefly: LPS induced proteinuria in mice. It is filed as in vivo. As to conditions: 4000 mg/kg intravenously 1 hour prior to LPS, urines 30 hours after first LPS injection, p<0.05 LPS+CD versus LPS. How it is done:
FIG. 6A-FIG. 6B: Depicts that CD partially prevents LPS induced podocyte damage. FIG. 6A: Depicts the results when HPBCD was administered intravenously (4000 mg/kg) 1 hour prior to LPS injection (200 ug/20 g mouse intraperitoneally). Urines were collected […] after LPS injection and analyzed for albumin/creatinine ratio by ELISA. p<0.05 when comparing LPS+CD versus LPS. FIG. 6B: Depicts that CD prevented LPS induction of MyD88 in isolated glomeruli in vivo. Referring to FIG. 6A, the antiproteinuric effects of CD were tested in an established experimental model of LPS induced proteinuria. Three mice per group were utilized. Mice were left untreated (CTRL), or received one injection of 4000 mg/kg Hydroxypropyl-beta-cyclodextrin (CD), or two injections of 200 μg LPS 24 hours apart (LPS), or received 4000 mg/kg of CD 1 hour prior to LPS treatment (LPS+CD). Urines were collected at 30 hours after the first LPS injection and analyzed for albumin and creatinine content by ELISA. Albuminuria was determined as the ratio between albumin and creatinine (μg/mg).

The subject of experiment [2] is patients at high risk for recurrent FSGS after transplantation. As to the kind of experiment: Clinical outcome after kidney transplantation in patients at high risk for recurrent FSGS, rituximab vs historical controls. It is filed as in vivo, human.
For a further experiment, the system named is CD19+ cells. As to the kind of experiment: CD19 count in transplanted FSGS patients after rituximab. The format is in vivo, human. As to conditions: N = 27. The source says:
W=white, B=black, M=male, F=female, ESRD=end stage renal disease, LD=living donor, DD=deceased donor. ΔeGFR: variation of eGFR. *p<0.05.

Experiment [3] deals with SMPDL-3b. As to the kind of experiment: SMPDL-3b expression in podocytes cultured with FSGS patient sera. It is filed as cell-based, human. As to conditions: recurrent FSGS (FIG. 2). The method, then:
FIG. 2A: Depicts low- and high-power images of immunoperoxidase staining for SMPDL-3b and synaptopodin in post-reperfusion biopsies of patients with recurrent (REC) and non-recurrent (NON-REC) FSGS. Arrows point to podocytes. Scale bars: 25 μm top and 15 μm bottom. […] All kidney biopsies were obtained prior to initiation of treatment with rituximab. An average of 13±4 glomeruli per patient were analyzed. *p<0.05, unpaired Student's t test. Data are mean±s.d. […] Data are mean±s.d. *p<0.05 and **p<0.01 by one-way ANOVA. […] Data are mean±s.d. *p<0.05 and **p<0.01 by one-way ANOVA. […] Data are mean±s.d. *p<0.05 and **p<0.01 by one-way ANOVA. […] Data are mean±s.d. *p<0.05 and **p<0.01 by one-way ANOVA.
(A) Low- and high-power images of immunoperoxidase staining for SMPDL-3b and synaptopodin in post-reperfusion biopsies of patients with recurrent (REC) and non-recurrent (NON-REC) FSGS. Arrows point to podocytes. […] All kidney biopsies were obtained prior to initiation of treatment with rituximab. […] (G) ASMase activity per μg of total lysate protein, as evaluated by ELISA.

Experiment [4] addresses T1, SMPDL-3B (Homo sapiens, UniProt Q92485).
T1 sequence (Q92485 19-455): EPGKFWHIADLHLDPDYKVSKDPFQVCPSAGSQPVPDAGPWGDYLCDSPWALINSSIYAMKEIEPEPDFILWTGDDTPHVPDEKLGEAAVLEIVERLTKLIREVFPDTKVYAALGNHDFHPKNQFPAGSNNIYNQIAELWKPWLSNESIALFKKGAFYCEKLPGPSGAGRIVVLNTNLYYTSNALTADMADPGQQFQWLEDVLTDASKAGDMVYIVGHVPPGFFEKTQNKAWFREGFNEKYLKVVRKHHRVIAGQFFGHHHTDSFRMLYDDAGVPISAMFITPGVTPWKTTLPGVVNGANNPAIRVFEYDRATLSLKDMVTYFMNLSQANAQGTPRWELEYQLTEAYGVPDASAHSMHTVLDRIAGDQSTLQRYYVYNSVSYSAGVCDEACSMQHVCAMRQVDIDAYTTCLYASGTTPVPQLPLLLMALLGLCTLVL
As to conditions: cited from earlier work.

Where [5] appears, read: number of patients (%), N = 27, one dose of rituximab (375 mg/m^2) within 24 hours of transplant.

Turning to Methyl-beta-cyclodextrin, the cell blebbing result in experiment [1] is on record as “prevents”.
Turning to `CC(O)COC[C@H]1O[C@@H]2O[C@H]3[C@H](O)[C@@H](O)[C@@H](O[C@H]4[C@H](O)[C@@H](O)[C@@H](O[C@H]5[C@H](O)[C@@H](O)[C@@H](O[C@H]6[C@H](O)[C@@H](O)[C@@H](O[C@H]7[C@H](O)[C@@H](O)[C@@H](O[C@H]8[C@H](O)[C@@H](O)[C@@H](O[C@H]1[C@H](O)[C@H]2O)O[C@@H]8COCC(C)O)O[C@@H]7COCC(C)O)O[C@@H]6COCC(C)O)O[C@@H]5COCC(C)O)O[C@@H]4COCC(C)O)O[C@@H]3COCC(C)O` (stereo partly drawn) [Hydroxypropyl-beta-cyclodextrin], the “LPS induced proteinuria (albumin/creatinine ratio by ELISA)” value in the experiment on LPS induced proteinuria is reported as “protects from Lipopolysaccharide (LPS) induced proteinuria”.
With rituximab, the Graft survival in experiment [2] (6 months, N = 27) is listed as 100%; in experiment [2] (12 months, N = 27), 95.8%. In experiment [2] (at 6 and 12 months, rituximab group vs control group), the “difference in graft survival between groups” value was “no significant difference”. For the same molecule, the “incidence of recurrent nephrotic range proteinuria and need for plasmapheresis” value in experiment [2] (between day 3 and 30 after transplantation, rituximab group vs control group) was “significantly lower”. Besides, the “Nephrotic proteinuria w/i 1 Mo” value in experiment [2] (setting [5]) was 7 (26%). Besides, the “Plasmapheresis w/I 1 Mo” value in experiment [2] (setting [5]) was 8 (30%). Further, the “CD 19 count” value in the experiment on CD19+ cells (Week 0) came out at 360 ± 223; in the experiment on CD19+ cells (Week 0.5), 107 ± 115; in the experiment on CD19+ cells (Week 1), 45 ± 31; with CD19+ cells (Week 2), 16 ± 23; in the experiment on CD19+ cells (Week 3), 5 ± 6; with CD19+ cells (Week 4) it was 6 ± 7. The “downregulation of SMPDL-3b” value in the experiment on SMPDL-3b [3] is recorded as “prevents the downregulation of SMPDL-3b”. Further, the “binding to SMPDL-3B” value with SMPDL-3B [4] is “found to bind SMPDL-3B”.

(Values after patent publication US10183038B2, “Method for preventing and treating renal disease” (L & F Research LLC, priority 2010, dated 2019).)
